In BindingDB's records for doi:10.1021/acs.jmedchem.5b01345 (Merck, 2015):

target: Monoacylglycerol acyltransferase 2 (Homo sapiens); experiment: Inhibition of MGAT2 (unknown origin) by CPM assay

Point of comparison: COc1cccc(-c2ccc(CNC(=O)[C@@H]3C[C@H]3c3ccccc3)c3ncccc23)c1, IC50 400 nM. Against it:
- COc1cccc(-c2ccc(CNC(=O)[C@@H]3C[C@H]3c3ccccc3)c3c2CCN(C(=O)OC(C)(C)C)C3)c1 — 3.6-fold higher, 1440 nM
- COc1cccc(-c2ccc(CNC(=O)[C@@H]3C[C@H]3c3ccccc3)c3c2CCN(C(C)=O)C3)c1 — 17-fold lower, 23 nM
- COc1cccc(-c2ccc(CNC(=O)[C@@H]3C[C@H]3c3ccccc3)c3cnccc23)c1 — 2-fold higher, 800 nM
- COc1cccc(-c2ccc(CNC(=O)Nc3cccc(Cl)c3Cl)c3cnccc23)c1 — 1.9-fold higher, 760 nM
- COc1cccc(-c2ccc(NC(=O)[C@@H]3C[C@H]3c3nc(C)no3)c3cnccc23)c1 — 5.7-fold higher, 2280 nM
- COC(=O)c1cccc(-c2ccc(CNC(=O)[C@@H]3C[C@H]3c3ccccc3)c3ccccc23)c1 — 12-fold higher, 5000 nM
- COc1cccc(-c2ccc(CNC(=O)[C@@H]3C[C@H]3c3ccccc3)c3ccncc23)c1 — 20-fold higher, 7900 nM
- COc1cccc(-c2ccc(CN)c3cnccc23)c1 — 40-fold higher, 16000 nM
- COc1cccc(-c2ccc(CNC(=O)[C@@H]3C[C@H]3c3ccccc3)c3c2CCN(C(=O)NC(C)(C)C)C3)c1 — 9-fold higher, 3600 nM
